Reference: patent US20250326713A1, “INHIBITORS OF MsbA AS ANTIBIOTICS, PHARMACEUTICAL COMPOSITIONS, AND USES THEREOF” (priority 2022, published 2025)
In brackets after ≈: the same amount, converted by molar mass.

tested on: various strains of bacteria; experiment: Antimicrobial potency: bacterial growth inhibition by OD600 (Antibacterial assay 1, MITC95); type: cell-based, A. baumannii; conditions: Acinetobacter baumannii, 20 h, lowest concentration giving >95% growth inhibition, CAMHB, 18-22 h
Description: The concentrations of compounds required to inhibit the growth of various strains of bacteria were determined in an assay that assessed bacterial growth by measuring optical density at 600 nm (OD600). Test articles were dissolved in 100% DMSO and serially diluted two-fold from their maximal concentration in 100% DMSO. Forty-nine μl of bacterial inoculum (at approx. 2×10^5 cfu/mL in CAMHB) were put into wells of an assay plate. One μl of compound or DMSO was transferred from the source plate to the assay plate. The completed assay plates were then incubated at 35+2degC for 18-22 h. Bacterial growth was measured by reading OD600 on a spectrophotometer. Data analysis calculates the lowest concentration of compound which results in >95% growth inhibition (minimum inhibitory threshold concentration 95%, MITC95).

| SMILES | MIC [µM] |
| --- | --- |
| O=C(O)Cc1cc(CN2CC(Oc3ccc(NS(=O)(=O)c4cnn(-c5ccc(Cl)cc5)c4)c(CC(=O)O)c3)C2)ccc1NS(=O)(=O)c1cnn(-c2ccc(Cl)cc2)c1 [Compound 1, 2-(5-((1-(3-(carboxymethyl)-4-(1-(4-chlorophenyl)-1H-pyrazole-4-sulfonamido)benzyl)azetidin-3-yl)oxy)-2-(1-(4-chlorophenyl)-1H-pyrazole-4-sulfonamido)phenyl) acetic acid] | 0.277 (≈ 0.24 µg/mL) |
| O=C(O)Cc1cc(CN2CC(Oc3ccc(NS(=O)(=O)c4cnn(-c5ccc(Cl)cc5)c4)c(C(=O)O)c3)C2)ccc1NS(=O)(=O)c1cnn(-c2ccc(Cl)cc2)c1 [Compound 2, 5-((1-(3-(carboxymethyl)-4-((1-(4-chlorophenyl)-1H-pyrazole)-4-sulfonamido)-benzyl)azetidin-3-yl)oxy)-2-((1-(4-chlorophenyl)-1H-pyrazole)-4-sulfonamido)benzoic acid] | 0.0692 (≈ 0.059 µg/mL) |
| O=C(O)c1cc(OC2CN(Cc3ccc(NS(=O)(=O)c4cnn(-c5ccc(F)cc5)c4)c(S(=O)(=O)O)c3)C2)ccc1NS(=O)(=O)c1cnn(-c2ccc(F)cc2)c1 [Compound 3, 2-((1-(4-fluorophenyl)-1H-pyrazole)-4-sulfonamido)-5-((1-(4-((1-(4-fluorophenyl)-1H-pyrazole)-4-sulfonamido)-3-sulfobenzyl)azetidin-3-yl)oxy)benzoic acid] | 0.277 (≈ 0.233 µg/mL) |
| O=C(O)c1cc(COC2CC(OCc3ccc(NS(=O)(=O)c4cnn(-c5ccc(F)cc5)c4)c(C(=O)O)c3)C2)ccc1NS(=O)(=O)c1cnn(-c2ccc(F)cc2)c1 (stereo not drawn) [Compound 12, trans-5-((3-((3-carboxy-4-((1-(4-fluorophenyl)-1H-pyrazole)-4-sulfonamido)benzyl)oxy)-cyclobutoxy)methyl)-2-((1-(4-fluorophenyl)-1H-pyrazole)-4-sulfonamido)benzoic acid] | 0.138 (≈ 0.115 µg/mL) |
| O=C(O)c1cc(COC2CC(OCc3ccc(NS(=O)(=O)c4ccc(-c5ccc(F)cc5)cc4)c(C(=O)O)c3)C2)ccc1NS(=O)(=O)c1ccc(-c2ccc(F)cc2)cc1 (centres unmarked) [Compound 14] | 0.0245 (≈ 0.0209 µg/mL) |
| O=C(O)c1cc(COC2CC(OCc3ccc(NS(=O)(=O)c4ccc(-c5ccc(F)cc5)cc4)c(C(=O)O)c3)C2)ccc1NS(=O)(=O)CCc1ccc(Cl)cc1 (centres unmarked) [Compound 16] | < 0.0488 |
| O=C(O)c1cc(COC2CC(OCc3ccc(NS(=O)(=O)c4ccc(-c5ccc(Cl)cc5)cc4)c(C(=O)O)c3)C2)ccc1NS(=O)(=O)CCc1ccc(Cl)cc1 (centres unmarked) [Compound 17] | < 0.0488 |
| O=C(O)c1cc(COC2CC(OCc3ccc(NS(=O)(=O)c4ccc(-c5ccc(Cl)cc5)cc4)c(C(=O)O)c3)C2)ccc1NS(=O)(=O)CCc1ccc(F)cc1 (centres unmarked) [Compound 18] | 0.0122 (≈ 0.01 µg/mL) |
| O=C(O)c1cc(OCC2CCC(COc3ccc(NS(=O)(=O)c4cnn(-c5ccc(Cl)cc5)c4)c(C(=O)O)c3)O2)ccc1NS(=O)(=O)c1cnn(-c2ccc(Cl)cc2)c1 (centres unmarked) [Compound 19, 5-((5-((3-Carboxy-4-((1-(4-chlorophenyl)-1H-pyrazole)-4-sulfonamido)-phenoxy)methyl)tetrahydrofuran-2-yl)methoxy)-2-((1-(4-chlorophenyl)-1H-pyrazole)-4-sulfonamido)benzoic acid] | 0.0245 (≈ 0.0217 µg/mL) |
| O=C(O)c1cc(OC[C@H]2CC[C@@H](COc3ccc(NS(=O)(=O)c4cnn(-c5ccc(F)cc5)n4)c(C(=O)O)c3)O2)ccc1NS(=O)(=O)c1cnn(-c2ccc(F)cc2)n1 [Compound 20] | 0.0245 (≈ 0.0209 µg/mL) |
| O=C(O)c1cc(OC[C@H]2CC[C@@H](COc3ccc(NS(=O)(=O)CCc4ccc(Cl)cc4)c(C(=O)O)c3)O2)ccc1NS(=O)(=O)CCc1ccc(Cl)cc1 [Compound 21] | 0.0489 (≈ 0.0395 µg/mL) |
| O=C(O)c1cc(OC[C@H]2CC[C@@H](COc3ccc(NS(=O)(=O)c4ccc(-c5ccc(F)cc5)cc4)c(C(=O)O)c3)O2)ccc1NS(=O)(=O)c1ccc(-c2ccc(F)cc2)cc1 [Compound 22] | 0.0489 (≈ 0.0426 µg/mL) |
| O=C(O)c1cc(OC[C@H]2CC[C@@H](COc3ccc(NS(=O)(=O)c4ccc(-c5ccc(Cl)cc5)s4)c(C(=O)O)c3)O2)ccc1NS(=O)(=O)c1ccc(-c2ccc(Cl)cc2)s1 [Compound 23] | 0.0346 (≈ 0.0317 µg/mL) |
| O=C(O)c1cc(OC[C@H]2C[C@H](Oc3ccc(NS(=O)(=O)c4cnn(-c5ccc(Cl)cc5)c4)c(C(=O)O)c3)CN2)ccc1NS(=O)(=O)c1cnn(-c2ccc(Cl)cc2)c1 [Compound 24, trans-5-((5-((3-carboxy-4-((1-(4-chlorophenyl)-1H-pyrazole)-4-sulfonamido)-phenoxy)methyl)pyrrolidin-3-yl)oxy)-2-((1-(4-chlorophenyl)-1H-pyrazole)-4-sulfonamido)benzoic acid] | 0.277 (≈ 0.241 µg/mL) |
| O=C(O)c1cc(CNC2CC(CNc3ccc(NS(=O)(=O)c4cnn(-c5ccc(F)cc5)c4)c(C(=O)O)c3)C2)ccc1NS(=O)(=O)c1cnn(-c2ccc(F)cc2)c1 (stereo not drawn) [Compound 25, cis-5-(((3-((3-carboxy-4-((1-(4-fluorophenyl)-1H-pyrazole)-4-sulfonamido)benzyl)amino)cyclobutyl)methyl)amino)-2-((1-(4-fluorophenyl)-1H-pyrazole)-4-sulfonamido)benzoic acid] | 0.155 (≈ 0.129 µg/mL) |
| O=C(O)c1cc(NCC2CC(NCc3ccc(NS(=O)(=O)c4cnc(-c5ccc(Cl)cc5)s4)c(C(=O)O)c3)C2)ccc1NS(=O)(=O)c1cnn(-c2ccc(F)cc2)c1 (centres unmarked) [Compound 26] | 0.0489 (≈ 0.0424 µg/mL) |
| O=C(O)c1cc(CNC2CC(CNc3ccc(NS(=O)(=O)c4cnn(-c5ccc(F)cc5)c4)c(C(=O)O)c3)C2)ccc1NS(=O)(=O)CCc1ccc(Cl)cc1 (centres unmarked) [Compound 27] | 0.391 (≈ 0.317 µg/mL) |
| O=C(O)c1cc(NCC2CC(NCc3ccc(NS(=O)(=O)N4CC(Oc5ccc(F)cc5)C4)c(C(=O)O)c3)C2)ccc1NS(=O)(=O)c1cnn(-c2ccc(F)cc2)c1 (centres unmarked) [Compound 28] | 0.196 (≈ 0.164 µg/mL) |
| O=C(O)c1cc(CNC2CC(CNc3ccc(NS(=O)(=O)c4cnn(-c5ccc(F)cc5)c4)c(C(=O)O)c3)C2)ccc1NS(=O)(=O)c1cnn(-c2ccc(Cl)cc2)c1 (centres unmarked) [Compound 29] | 0.0489 (≈ 0.0415 µg/mL) |
| O=C(O)c1cc(CNC2CC(CNc3ccc(NS(=O)(=O)c4cnn(-c5ccc(F)cc5)c4)c(C(=O)O)c3)C2)ccc1NS(=O)(=O)c1ccc(-c2ccc(Cl)cc2)cc1 (centres unmarked) [Compound 30] | 0.277 (≈ 0.238 µg/mL) |
| O=C(O)c1cc(NCC2CC(NCc3ccc(NS(=O)(=O)c4cnn(-c5ccc(F)cc5)n4)c(C(=O)O)c3)C2)ccc1NS(=O)(=O)c1cnn(-c2ccc(F)cc2)c1 (centres unmarked) [Compound 31] | 0.196 (≈ 0.163 µg/mL) |
| O=C(O)c1cc(CNC2CC(CNc3ccc(NS(=O)(=O)c4cnn(-c5ccc(Cl)cc5)c4)c(C(=O)O)c3)C2)ccc1NS(=O)(=O)c1cnn(-c2ccc(Cl)cc2)c1 (centres unmarked) [Compound 32] | 0.0245 (≈ 0.0212 µg/mL) |
| Cn1nc(-c2ccc(F)cc2)cc1S(=O)(=O)Nc1ccc(CNC2CC(CNc3ccc(NS(=O)(=O)c4cnn(-c5ccc(F)cc5)c4)c(C(=O)O)c3)C2)cc1C(=O)O (centres unmarked) [Compound 33] | 0.0489 (≈ 0.0414 µg/mL) |
| Cn1nc(-c2ccc(F)cc2)cc1S(=O)(=O)Nc1ccc(CNC2CC(CNc3ccc(NS(=O)(=O)c4cnn(-c5ccc(Cl)cc5)c4)c(C(=O)O)c3)C2)cc1C(=O)O (centres unmarked) [Compound 34] | 0.0489 (≈ 0.0422 µg/mL) |
| O=C(O)c1cc(CNC2CC(CNc3ccc(NS(=O)(=O)c4cnn(-c5ccc(Cl)cc5)c4)c(C(=O)O)c3)C2)ccc1NS(=O)(=O)c1cnn(-c2ccc(F)cc2)c1 (centres unmarked) [Compound 35] | 0.0489 (≈ 0.0415 µg/mL) |

same assay, conditions: lowest concentration giving >95% growth inhibition, CAMHB, 18-22 h

| SMILES | MIC [µM] |
| --- | --- |
| O=C(O)c1cc(COC2CC(OCc3ccc(NS(=O)(=O)c4cnn(-c5ccc(F)cc5)c4)c(C(=O)O)c3)C2)ccc1NS(=O)(=O)c1cnn(-c2ccc(F)cc2)c1 (centres unmarked) [Compound 13] | 0.196 (≈ 0.164 µg/mL) |
